Results on two molecules are retold here after patent EP1215202A1, “Intermediates for the preparation of possibly substituted 8-cyano-1-cyclopropyl-7-(2,8-diazabicyclo-(4.3.0)-nonan-8-yl)-6-fluoro-1,4-dihydro-4-oxo-3-quinolin carboxylic acids and their derivatives” (BAYER AG, priority 1996, dated 1997).

The test system of data set [1] is Fusobacterium necrophorum Ao 9620. Briefly: MIC (MHK), agar serial dilution on Iso-Sensitest agar. It counts as cell-based. The settings on record: AO9620, Stamm Ao 9620, 37°C, read after ca. 20 h, read-out: MHK-Werte.
The next data set is described as follows: in vivo. Further details: species or system Hunde (Beagle). The settings on record: dog, 5 mg/kg. The procedure: Die verbesserten pharmakokinetischen Eigenschaften der erfindungsgemäßen Substanz aus […] Enrofloxacin in einer Serumkinetik-Studie an Hunden gezeigt werden. Die Substanzen wurden in einer Dosierung von 5 mg/kg Körpergewicht an jeweils 6 Hunden […] Beagle geprüft. Dabei […].), intramuskulär (i. m.) und oral in […] Cross-Over-Anordnung zur Anwendung. Bei allen Applikationsarten konnte gezeigt werden, dass mit der erfindungsgemäßen Substanz aus […]1/2) und […] und somit eine größere Substanzmenge im Organismus zur […] unter der Serumspiegelkurve, AUC0-24).

Data set [2] deals with Streptococcus suis Scc 9593. Briefly: MIC (MHK), agar serial dilution on Iso-Sensitest agar. It counts as cell-based. The settings on record: SCC9593, Stamm Scc 9593, 37°C, read after ca. 20 h, read-out: MHK-Werte.
Data set [3] deals with Streptococcus agalactiae Scc 9549. Described as above. The note with it: SCC9549, Stamm Scc 9549, 37°C, read after ca. 20 h, read-out: MHK-Werte. It counts as cell-based.
Data set [4] relates to Clostridium perfringens Cl 9606. As to the kind of experiment: microbe, parasite or virus in culture. It counts as cell-based. The settings on record: CL9606, 20 h, read-out: MHK-Werte.
Data set [5] relates to Actinomyces pyogenes Am 9602. Briefly: MIC (MHK), agar serial dilution on Iso-Sensitest agar. It counts as cell-based. The settings on record: Trueperella pyogenes, AM9602, Stamm Am 9602, 37°C, read after ca. 20 h, read-out: MHK-Werte.
The subject of data set [6] is Pseudomonas aeruginosa P 9503. The data set is described as above. The settings on record: P9503, Stamm P 9503, 37°C, read after ca. 20 h, read-out: MHK-Werte. The format is cell-based.
A further data set deals with Mycoplasma iowae M 95144. As to the kind of experiment: MIC (MHK), agar serial dilution, mycoplasma read microscopically. It counts as cell-based. The note with it: Malacoplasma iowae, M95144, Stamm M 95144, read microscopically after 5 to 7 days, read-out: MHK-Werte.
The next data set relates to Salmonella spp. S 9659. As to the kind of experiment: MIC (MHK), agar serial dilution on Iso-Sensitest agar. The format is cell-based. The note with it: SPP.S9659, Stamm S 9659, 37°C, read after ca. 20 h, read-out: MHK-Werte. An excerpt:
(§1) Die minimalen Hemmkonzentrationen (MHK) der erfindungsgemäßen Verbindungen wurden per Reihenverdünnungsverfahren auf Iso-Sensitest Agar (Oxoid) bestimmt. Für jede Prüfsubstanz wurde eine Reihe von Agarplatten hergestellt, die bei jeweils doppelter Verdünnung abfallende Konzentrationen des Wirkstoffs enthielten. Die Agarplatten wurden mit einem Multipoint-Inokulator (Denley) beimpft. Zum Beimpfen wurden Übernachtkulturen der Erreger verwandt, die zuvor so verdünnt wurden, dass jeder Impfpunkt ca. 10^4 koloniebildende Partikel enthielt. Die beimpften Agarplatten wurden bei 37°C bebrütet, und das Keimwachstum wurde nach ca. 20 Stunden abgelesen. Der MHK-Wert (µg/ml) gibt die niedrigste Wirkstoffkonzentration an, bei der mit bloßem Auge kein Wachstum zu erkennen war. Die Erfassung der MHK-Werte für Mycoplasmen erfolgte mikroskopisch nach einer Inkubationszeit von 5 bis 7 Tagen.
(§2) In der nachstehenden Tabelle sind die MHK-Werte einer der erfindungsgemäßen Verbindungen im Vergleich zu Enrofloxacin als Referenzverbindung aufgeführt.

In data set [7] the test system is Actinobacillus pleuropneumoniae App 06/94. Described as above. It counts as cell-based. The settings on record: APP06/94, Stamm App 06/94, 37°C, read after ca. 20 h, read-out: MHK-Werte.
The test system of another data set is E. coli Ec 9658. The description is as above. It counts as cell-based. The settings on record: Escherichia coli, EC9658, Stamm Ec 9658, 37°C, read after ca. 20 h, read-out: MHK-Werte.
Data set [8] has as its system Mycoplasma hyorhinis M 9557. As to the kind of experiment: MIC (MHK), agar serial dilution, mycoplasma read microscopically. The format is cell-based. The settings on record: M9557, Stamm M 9557, read microscopically after 5 to 7 days, read-out: MHK-Werte.
For a further data set, the system named is Mycoplasma bovis M 9548. The data set is described as above. It counts as cell-based. The settings on record: Mycoplasmopsis bovis, M9548, Stamm M 9548, read microscopically after 5 to 7 days, read-out: MHK-Werte.
Source text: as §1, with “Der MHK-Wert (µg/ml) gibt die niedrigste Wirkstoffkonzentration an, bei der mit bloßem Auge kein Wachstum zu erkennen war. Die Erfassung der MHK-Werte für Mycoplasmen erfolgte mikroskopisch nach einer Inkubationszeit von 5 bis 7 Tagen.” left out
as §2

The subject of data set [9] is Bordetella bronchiseptica B 9610. Briefly: MIC (MHK), agar serial dilution on Iso-Sensitest agar. The format is cell-based. The settings on record: B9610, Stamm B 9610, 37°C, read after ca. 20 h, read-out: MHK-Werte.

Values after ≈ are worked out from the molar mass of the structure shown.

Consider `N#Cc1c(N2C[C@@H]3CCCN[C@@H]3C2)c(F)cc2c(=O)c(C(=O)O)cn(C3CC3)c12` [Beispiel 1, 8-Cyan-1-cyclopropyl-7-((1S,6S)-2,8-diazabicyclo[4.3.0]nonan-8-yl)-6-fluor-1,4-dihydro-4-oxo-3-chinolincarbonsäure], for which the MIC in data set [1] is 0.03 µg/mL (≈ 0.0757 µM); in data set [2] it was 0.06 µg/mL (≈ 0.151 µM); in data set [3], 0.03 µg/mL (≈ 0.0757 µM); in data set [4], 0.25 µg/mL (≈ 0.631 µM); in data set [5] it was 0.25 µg/mL (≈ 0.631 µM); in data set [6], 0.25 µg/mL (≈ 0.631 µM). For the same molecule, the MIC in the data set with Mycoplasma iowae M 95144 and in the data set on Salmonella spp. S 9659 was 0.06 µg/mL (≈ 0.151 µM) in each case. For the same molecule, the AUC(0-t) (usually the area under the concentration-time curve up to a stated or last time point) at 24 h in the data set “in vivo” (im) was 19800 ng·h/mL; in “in vivo” (iv) it was 20000 ng·h/mL; in “in vivo” (po), 17400 ng·h/mL. Besides, the highest concentration (Cmax) (as a rule, the maximum level reached in the sampled fluid or tissue) in the data set “in vivo” (im) is 2400 ng/mL; in “in vivo” (po), 1300 ng/mL. Moreover, the MRT – broadly, the average time that molecules of a dose stay in the body – in “in vivo” (im) stood at 8.5 h; in the data set “in vivo” (iv) it was 11.5 h; in the data set “in vivo” (po) it was 14.7 h. Besides, the half-life (usually how long it takes for the measured level to halve) is 6.9 h in the data set “in vivo” (im), 10.5 h in the data set “in vivo” (iv) and 9.5 h in “in vivo” (po).

`CCN1CCN(c2cc3c(cc2F)c(=O)c(C(=O)O)cn3C2CC2)CC1` [Enrofloxacin]: the MIC came to 4 µg/mL (≈ 11.1 µM) in [1]; 0.5 µg/mL (≈ 1.39 µM) in data set [2]; 0.5 µg/mL (≈ 1.39 µM) in data set [3]; 0.06 µg/mL (≈ 0.167 µM) in data set [7]; 0.03 µg/mL (≈ 0.0835 µM) in the data set on E. coli Ec 9658; 4 µg/mL (≈ 11.1 µM) in data set [4]. Besides, the MIC in [8] amounted to 0.06 µg/mL (≈ 0.167 µM); in data set [5], 1 µg/mL (≈ 2.78 µM); in data set [6] it was 1 µg/mL (≈ 2.78 µM); with Mycoplasma iowae M 95144, 0.5 µg/mL (≈ 1.39 µM); in the data set on Mycoplasma bovis M 9548, 0.25 µg/mL (≈ 0.696 µM); in [9], 0.5 µg/mL (≈ 1.39 µM). Besides, the MIC with Salmonella spp. S 9659 was found to be 0.5 µg/mL (≈ 1.39 µM). Further, the AUC(0-t) at 24 h in the data set “in vivo” (im) was 8400 ng·h/mL; in “in vivo” (iv), 10400 ng·h/mL; in “in vivo” (po), 7000 ng·h/mL. The figures for the Cmax in the data set “in vivo” (im) and in the data set “in vivo” (po) were 2100 ng/mL and 1000 ng/mL, respectively. The mean residence time (MRT) in the data set “in vivo” (im) is 3.9 h; in “in vivo” (iv), 4.2 h; in “in vivo” (po) it was 7.3 h. Further, the half-life in “in vivo” (im) is 2.9 h; in the data set “in vivo” (iv), 3.7 h; in the data set “in vivo” (po) it was 4.3 h.
